Measured values published in patent publication US9417245B2, “Porphyrinic compounds for use in flow cytometry” (North Carolina State University, priority 2005, dated 2016).
“And” between values parts separate entries of the source, which are not always exact repeats. Equal values may be shown once. Read-outs that look alike come from different tables or passages of the source.

Tests used:
[1] = Absorption spectroscopy of chlorins (B and Qy bands, log ε, B/Qy ratio); type: physicochemical; settings: for ΔvQy: Example 2 Table 2, redshift relative to the parent chlorin (ZnC or Zn-M^10)
Excerpt: (§1) The spectral properties of interest in the chlorins include the position of the long-wavelength Qy transition, the intensity of the Qy transition, and the fluorescence quantum yield of the chlorin. The intensity of the Qy transition can be assessed by the measured molar absorption coefficient; however, comparisons of such values are somewhat unreliable given the experimental variability encountered upon handling small quantities of materials. A better comparison is achieved by examination of the ratio of the intensities of the B and Qy bands for a given compound (B/Qy ratio), which is determined simply by absorption spectroscopy without requiring determination of the molar absorption coefficient. For a wide variety of applications, bathochromic and hyperchromic shifts of the Qy band are desired (i.e., shifted to longer wavelength and intensified), thereby affording strong absorption in the deep-red region.
^1H NMR (400 MHz) and ^13C NMR (75 MHz) spectra were collected at room temperature in CDCl3. Absorption spectra were obtained in toluene at room temperature. Chlorins were analyzed by laser desorption mass spectrometry (LD-MS) in the absence of a matrix. Fast atom bombardment mass spectrometry (FAB-MS) data are reported for the molecule ion or protonated molecule ion. Melting points are uncorrected. All commercially available materials were used as received. All palladium-coupling reactions were carried out using standard Schlenk-line techniques.
as §1, with “increased” for “intensified), thereby affording strong absorption”, “intensity).” for “the deep-red region.”
^1H NMR (400 MHz) and ^13C NMR (75 MHz) spectra were collected at room temperature in CDCl3 unless noted otherwise. Absorption spectra were obtained in toluene at room temperature. Chlorins were analyzed by laser desorption mass spectrometry (LD-MS) in the absence of a matrix. Metalation of free base chlorins was monitored by fluorescence spectroscopy. Melting points are uncorrected. All commercially available materials were used as received.

[2] = Fluorescence spectroscopy (emission bands, fluorescence quantum yield); type: physicochemical; settings: in toluene at room temperature
Protocol: The fluorescence spectra and fluorescence quantum yields reported herein were collected in toluene at room temperature. Measurements of fluorescence quantum yield (Φf) were carried out using chlorin Zn-11 (Φf=0.065) as a standard.^16

[3] = literature, cited from earlier work; for Qy band position: FIG. 3, natural pigments, in diethyl ether

Qy band position ([1]; in toluene at room temperature)	ΔvQy ([1]; toluene) [cm⁻¹]	Compound	Qy band position [3]	also measured
660 nm	–	Cc1ccc(-c2c3nc(c(-c4c(C)cc(C)cc4C)c4cc5c([nH]4)c(c4nc(cc6ccc2[nH]6)C(C)(C)C4)CC5=O)C=C3)cc1 [Compound 2, 18,18-Dimethyl-10-mesityl-13^1-oxo-5-p-tolylphorbine]	–	–
632 nm and 635 nm	–	CC(=O)c1cc2[n]3c1=CC1=NC(=Cc4ccc([n]4[Zn]3)C(c3ccc(C)cc3)=C3C=CC(=N3)C=2c2c(C)cc(C)cc2C)C(C)(C)C1 [Zn-1, Zn(II)-13-Acetyl-17,18-dihydro-10-mesityl-18,18-dimethyl-5-p-tolylporphyrin]	–	strong Qy(0,0) / dominant fluorescence band [2]: around 641 nm; B band position ([1]; in toluene at room temperature): 424 nm; B/Qy band intensity ratio ([1]; in toluene at room temperature): 2.9; log ε (Qy band) ([1]; molar absorption coefficient comparison, toluene): 4.75
652 nm	1160	CC(=O)c1cc2[n]3c1C=C1CC(C)(C)C(=N1)C=c1cc(C#C[Si](C(C)C)(C(C)C)C(C)C)c([n]1[Zn]3)=CC1=NC(=C2c2c(C)cc(C)cc2C)C=C1 [ZnC-E^3M^10A^13, Zn(II)-13-Acetyl-3-[2-(triisopropylsilyl)ethynyl]-17,18-dihydro-10-mesityl-18,18-dimethylporphyrin]	–	–
646 nm	1020	Cc1cc(C)c(C2=c3cc(C#C[Si](C(C)C)(C(C)C)C(C)C)c4[n]3[Zn][n]3c(cc(C#C[Si](C(C)C)(C(C)C)C(C)C)c3C=C3C=CC2=N3)C=C2N=C(C=4)CC2(C)C)c(C)c1 [ZnC-E^3M^10E^13, Zn(II)-3,13-Bis[2-(triisopropylsilyl)ethynyl]-17,18-dihydro-10-mesityl-18,18-dimethylporphyrin]	–	–
632 nm	680	CC(=O)c1cc2[n]3c1C=C1CC(C)(C)C(=N1)C=c1ccc([n]1[Zn]3)=CC1=NC(=C2c2c(C)cc(C)cc2C)C=C1 [ZnC-M^10A^13, Zn(II)-13-Acetyl-17,18-dihydro-10-mesityl-18,18-dimethylporphyrin]	–	B/Qy band intensity ratio ([1]; in toluene at room temperature): 2.2

More lines, now with the values behind:

Compound	Qy band position ([1]; in toluene at room temperature)	ΔvQy ([1]; toluene) [cm⁻¹]	Qy band position [3]	also measured
Cc1cc(C)c(C2=c3cc(C#C[Si](C(C)C)(C(C)C)C(C)C)c4[n]3[Zn][n]3c(ccc3C=C3N=C(C=4)CC3(C)C)C=C3C=CC2=N3)c(C)c1 [ZnC-M^10E^13, Zn(II)-13-[2-(Triisopropylsilyl)ethynyl]-17,18-dihydro-10-mesityl-18,18-dimethylporphyrin]	626 nm	530	–	–
C=Cc1cc2[n]3c1C=C1C=CC(=N1)C(c1c(C)cc(C)cc1C)=c1ccc([n]1[Zn]3)=CC1=NC(=C2)C(C)(C)C1 [ZnC-V^3M^10]	621 nm	400	–	–
C=Cc1c(C)c2cc3nc(c4c5[n-]c(cc6nc(cc1[n-]2)C(C)=C6CC)c(C)c5C(=O)[C@@H]4C(=O)OC)[C@@H](CCC(=O)OC/C=C(\C)CCC[C@H](C)CCC[C@H](C)CCCC(C)C)[C@@H]3C.[Mg+2] [chlorophyll a]	–	–	662 nm	B band position ([3]; chlorophyll a): 430 nm; B/Qy band intensity ratio ([3]; chlorophyll a): 1.3
C=Cc1c(C)c2cc3nc(c4c5[n-]c(cc6nc(cc1[n-]2)C(C=O)=C6CC)c(C)c5C(=O)[C@@H]4C(=O)OC)[C@@H](CCC(=O)OC/C=C(\C)CCC[C@H](C)CCC[C@H](C)CCCC(C)C)[C@@H]3C.[Mg+2] [chlorophyll b]	–	–	644 nm and 642 nm	–
pheophytin a	–	–	667 nm	–
